Laboratory results: patent US20100266691A1, “Agents and Methods to Stimulate Bone Healing” (BATTELLE MEMORIAL INSTITUTE, priority 2009, published 2010)

Tests used:
[1] = test system: Mouse MLO-Y4 osteocyte-like cells; assay: osteocyte dendrite outgrowth trans-well assay; format: cell-based
Method: Data are normalized to untreated control cells.
Among the effects of LPA on pre-osteoblasts is the induction of membrane extensions that resemble osteocyte dendrites. An assay was developed to study the ability of LPA to stimulate the outgrowth of dendritic processes from osteocytes in vitro, FIG. 3. Mouse MLO-Y4 osteocyte-like cells were seeded in the upper wells of opaque trans-well chambers having 1.0-micron pores which prevent the passage of whole cells but allow penetration by membrane extensions. Cells were fluorescently labeled with calcein to allow visualization of dendrites that were extended onto the undersides of the opaque chambers. It was determined that the presence of LPA in the lower chamber lead to a 7-fold increase in osteocyte dendrite outgrowth.
It is postulated that LPA enhances dendrite outgrowth in vivo, which can re-establish the osteocyte mechanosensory network during the regeneration of damaged bone.

[2] = test system: drill-hole defects in the cortex of rat femurs; assay: rat femur drill-hole defect healing with PLGA implants (microCT); format: in vivo; details: PLGA+12.5 μg LPA vs PLGA+2.0 μg rhBMP2; six weeks post-treatment
Text: Defect regions (arrows) are enlarged on the right; dotted lines depict the original defect boarders.
The inventor has shown, using rat models, that LPA enhances skeletal regeneration in vivo. The bone growth stimulatory effects of LPA were compared to those of bone morphogenetic protein 2 (BMP-2), which is an FDA approved osteoinductive additive to bone implants. Referring to FIG. 4, drill-hole defects (3-mm diameter) were introduced into the cortex of rat femurs. Implants were fabricated utilizing poly(DL-lactic-co-glycolic acid) copolymers) (PLGA). The femurs were then implanted with either LPA or a therapeutic amount (2 μg) of BMP-2 and were compared to a non-treated control. Bone healing was measured as the rate of closure of the defect as visualized in living animals by micro-computed tomography (microTC). Implants were designed as follows: PLGA alone; PLGA+12.5 μg LPA; PLGA+2.0 μg rhBMP2.
One preferred combination of the invention is LPA and BMP-2. Utilizing a rat model, the affects of LPA and LPA with BMP-2 were studied. Rat femurs were drilled to introduce a defect as set forth for FIG. 4. Implants were prepared as described above with the addition of an implant having PLGA+2.0 μg rhBMP2+12.5 μg LPA. Each corresponding drill drill-hole was implanted with: A) nothing (control); B) LPA; C) BMP-2 or D) LPA+BMP-2.

[3] = test system: Mouse MC3T3-E1 pre-osteoblastic cells; assay: pre-osteoblast chemotaxis trans-well assay; format: cell-based; details: for chemotactic effect of LPA in the presence of inhibitor: inhibitor added together with LPA
Method: Mouse MC3T3-E1 pre-osteoblastic cells were seeded into the upper wells of opaque trans-well chambers that had 8.0-micron pores. LPA was added to the growth medium in the lower chamber. The number of cells that migrated through the pores and attached to the underside of the microporous membrane served as a measure of chemotaxis (chemically directed cell migration). Cells were fluorescently labeled with calcein to allow visualization on the undersides of the opaque chambers. Utilizing this assay it was determined that LPA elicited a 6.5 fold increase in pre-osteoblast when compared to cells under control conditions (growth medium in the absence of LPA).

MC3T3-E1 cells = assay: global gene expression profiling (Affymetrix mouse whole genome microarrays); format: cell-based; details: LPA 1.0 μM
Method: LPA also modulates the expression of a large set of pre-osteoblast genes linked to development (FIG. 2). MC3T3-E1 cells were grown in the presence or absence of a physiological level of LPA (1.0 μM). After growth of the cells, total RNA was isolated for use in global gene expression profiling. Gene expression was measured utilizing Affymetrix mouse whole genome microarrays. Data were analyzed using a suite of bioinformatics software. […] As shown, genes involved in cell development are the most statistically significant group affected by LPA.

Compound | increase in osteocyte dendrite outgrowth ([1]; LPA in lower chamber, 1.0-micron pores, normalized to untreated control cells) [fold] | stimulation of dendritogenesis ([1]; each concentration tested) | bone healing (closure of the defect) compared with BMP-2 [2] | increase in pre-osteoblast chemotaxis compared to cells under control conditions ([3]; LPA in lower chamber, 8.0-micron pores, control = growth medium in the absence of LPA) [fold] | number of genes regulated in LPA-treated cells (MC3T3-E1 cells) [genes] | chemotactic effect of LPA in the presence of inhibitor [3]
CCCCCCCC/C=C\CCCCCCCC(=O)OC[C@@H](O)COP(=O)([O-])O.[Na+] [LPA, lysophosphatidic acid] | 7 | significantly stimulated dendritogenesis | stimulatory properties of LPA exceed those of BMP-2 | 6.5 | 513 | 
pertussis toxin |  |  |  |  |  | decreased chemotactic effect
Cc1noc(-c2ccc(CSCCC(=O)O)cc2)c1NC(=O)OC(C)c1ccccc1Cl (stereo not shown) [Ki16425] |  |  |  |  |  | decreased chemotactic effect
